Results from patent publication US9962453B2, “Immunogenic compound” (ALTIMMUNE UK LIMITED, priority 2013, dated 2018).
Marks after values point to notes of the source that are not given here.

Test: Particle size measurement (dynamic light scattering) and visual solubility in aqueous solutions; for particle size, HIST/NaCl: unit not given here; for particle size, HIST: unit not given here; for particle size, NaCl: unit not given here; for particle size, PBS: unit not given here; for particle size, Water: unit not given here
Details: for particle size, HIST: 2 mg net mass/ml in 28 mM L-Histidine buffer, pH 5.9 to 6.4; for particle size, HIST/NaCl: 2 mg net mass/ml in 0.9% sodium chloride in 28 mM L-histidine, pH 5.9 to 6.3; for particle size, NaCl: 2 mg net mass/ml in 0.9% sodium chloride, pH 3.3 to 4.2; for particle size, PBS: 2 mg net mass/ml in 1× PBS, pH 6.9 to 7.5; for particle size, Water: 2 mg net mass/ml in water, pH 3.1 to 4.1, 20 °C; for behaviour in the particle size assay: water, HIST, NaCl versus HIST/NaCl, PBS

| Substance | particle size, HIST | particle size, HIST/NaCl | particle size, NaCl | particle size, PBS | particle size, Water | behaviour in the particle size assay |
| --- | --- | --- | --- | --- | --- | --- |
| Ac-RRLLLAPLALPALLLRRL-NH2 [Peptide 4, Ac-RRLLLAPLALPALLLRRL-NH2] | 0* | 0* | 0* | 2.38* | 0* |  |
| Ac-RRLLKAKLALKAKLLRRL-NH2 [Peptide 18, Ac-RRLLKAKLALKAKLLRRL-NH2] | 0* | 0* | 0* | 0* | 0* |  |
| Ac-RRLLPAALALAAPLLRRL-NH2 [Peptide 2, Ac-RRLLPAALALAAPLLRRL-NH2] | 0* | 0* | 0* | 4.52* | 0* |  |
| Ac-RRLLHAHLALHAHLLRRL-NH2 [Peptide 16, Ac-RRLLHAHLALHAHLLRRL-NH2] | 0* | 1.83* | 0* | 1.4* | 0* | apparent solubility in water, 28 mM L-Histidine and 0.9% NaCl with the formation of larger particles or insoluble aggregates in 28 mM L-Histidine/NaCl or PBS |
| Ac-RRLLHAALALAAHLLRRL-NH2 [Peptide 13, Ac-RRLLHAALALAAHLLRRL-NH2] | 0* | 2.7* | 2.2* | 2.3* | 0* |  |
| Ac-RRLLHAKLALKAHLLRRL-NH2 [Peptide 17, Ac-RRLLHAKLALKAHLLRRL-NH2] | 0* | 0* | 0* | 0* | 0* |  |
| Ac-RRLLHAPLALPAHLLRRL-NH2 [Peptide 12, Ac-RRLLHAPLALPAHLLRRL-NH2] | 0* | 0* | 0* | 1.35* | 0* |  |
| Ac-RRLKKAKLKLKAKKLRRL-NH2 [Peptide 19, Ac-RRLKKAKLKLKAKKLRRL-NH2] | 0* | 0* | 0* | 0* | 0* |  |
| Ac-RRLLPAPLALPAPLLRRL-NH2 [Peptide 1, Ac-RRLLPAPLALPAPLLRRL-NH2] | 0* | 0.87* | 0* | 2.39* | 0* |  |
| Ac-LRLLHALLALLAHLLRLL-NH2 [Peptide 6, Ac-LRLLHALLALLAHLLRLL-NH2] | INS. | INS. | INS. | INS. | INS. |  |
| Ac-RRLLPALLALLAPLLRRL-NH2 [Peptide 3, Ac-RRLLPALLALLAPLLRRL-NH2] | 0* | 0* | 0* | 3.37* | 0* |  |
| Ac-RRLLHALLALLAHLLRRL-NH2 [Peptide 11, Ac-RRLLHALLALLAHLLRRL-NH2] | 0* | INS. | 0* | INS. | 0* |  |
| Ac-RRLLPAHLALHAPLLRRL-NH2 [Peptide 14, Ac-RRLLPAHLALHAPLLRRL-NH2] | 0* | 0* | 0* | 1.5* | 0* |  |
| Ac-RRLLAAPLALPAALLRRL-NH2 [Peptide 5, Ac-RRLLAAPLALPAALLRRL-NH2] | 0* | 3.3* | 1.6* | 1.35* | 0* |  |
| Ac-LRLLAAHLALHAALLRLL-NH2 [Peptide 10, Ac-LRLLAAHLALHAALLRLL-NH2] | INS. | INS. | INS. | INS. | INS. |  |
| H-K(Ac)RRLLHAHLALHAHLLRRLK(Ac)-NH2 [Peptide 16′, K(Ac)RRLLHAHLALHAHLLRRLK(Ac)-NH2] | 0* | 2.3* | 0* | 2.9* | 0* | apparent solubility in water, 28 mM L-Histidine and 0.9% NaCl with the formation of larger particles or insoluble aggregates in 28 mM L-Histidine/NaCl or PBS |
| Ac-LRLLHAALALAAHLLRLL-NH2 [Peptide 8, Ac-LRLLHAALALAAHLLRLL-NH2] | INS. | INS. | INS. | INS. | INS. |  |
| Ac-RRLLAAHLALHAALLRRL-NH2 [Peptide 15, Ac-RRLLAAHLALHAALLRRL-NH2] | 0* | 2.66* | 0* | 360.7* | 0* |  |
| Ac-LRLLPAHLALHAPLLRLL-NH2 [Peptide 9, Ac-LRLLPAHLALHAPLLRLL-NH2] | 0* | INS. | 6.02* | INS. | 0* |  |
| Ac-LRLLHAPLALPAHLLRLL-NH2 [Peptide 7, Ac-LRLLHAPLALPAHLLRLL-NH2] | 0* | INS. | 0* | INS. | 0* |  |
